Assay results from patent publication US20020137929A1, “1 - (3-heterocyclylphenyl) isothiourea, -isourea, -guanidine and -amidine herbicidal agents” (Intellectual Property Department, BASF Aktiengesellschaft, priority 1998, published 2002).

Tests used:
MOOVA (Monochoria) = test: Preemergence weed control under flooded paddy conditions; type: in vivo, Monochoria vaginalis; details: rated 3-4 weeks after treatment
Procedure, shortened: (§1)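 Ratings on a 0-9 visual scale cover stand, vigor, malformation, size, chlorosis and overall appearance relative to a control, taken three to four weeks post-treatment. Application was into flood water over freshly sown silt loam at roughly 0.0313 to 0.500 kg/ha.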

CASOB (Sicklepod) = test: Postemergence herbicidal evaluation; type: in vivo, Cassia obtusifolia; details: postemergence
Procedure, shortened: (§2)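 Young plants, roughly two weeks from seeding, receive the active ingredient as a sprayed dispersion (acetone/water 50/50, 0.5% TWEEN 20) at 40 psi. Doses span about 0.0156 to 0.500 kg/ha. A visual score from 0 to 9 compares treated with control plants four to five weeks on.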

[1] = test system: SAGPY (Arrowhead (Pygmaea)); test: Postemergence weed control under flooded paddy conditions; type: in vivo, Sagittaria pygmaea; details: postemergence weeds, 3-4 weeks after treatment
Procedure, shortened: (§3)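 Herbicidal effect is judged by eye on a 0–9 scale versus control, 3–4 weeks after dosing. Dosing is into flood water kept 1.5–3 cm over the soil, at about 0.0313–0.500 kg/ha in aqueous/acetone 50/50 v/v, on 3–5 cm weeds and 1.5–2.5-leaf rice seedlings.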

[2] = test system: GLXMAW (Soybean, Williams); test: Postemergence herbicidal evaluation; type: in vivo, Glycine max, (L.) Merr. cv Williams; details: postemergence
Procedure, shortened: as §2

GALAP (Galium) [3] = test: Preemergence herbicidal evaluation; type: in vivo, Galium aparine; details: rated 4-5 weeks after treatment
Procedure, shortened: (§4)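 Each species is sown separately in potting soil over roughly an inch of soil before any emergence. The soil surface then receives an aqueous acetone spray delivering about 0.0156 to 0.500 kg/ha of compound. After four to five weeks, injury is scored from 0 to 9 relative to a control.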

[4] = test system: ECHORC (Watergrass (Calif.)); test: Postemergence weed control under flooded paddy conditions; type: in vivo, Echinochloa oryzoides; details: postemergence weeds, 3-4 weeks after treatment
Procedure, shortened: as §3

SETVI (Foxtail, Green) = test: Preemergence herbicidal evaluation; type: in vivo, Setaria viridis; details: rated 4-5 weeks after treatment
Procedure, shortened: as §4

CYPSE (Flatsedge) = test: Preemergence weed control under flooded paddy conditions; type: in vivo, Cyperus serotinus; details: rated 3-4 weeks after treatment
Procedure, shortened: as §1

[5] = test system: SAGPY (Arrowhead (Pygmaea)); test: as above; type: in vivo, Sagittaria pygmaea; details: rated 3-4 weeks after treatment
Procedure, shortened: as §1

[6] = test system: ECHORC (Watergrass (Calif.)); test: as above; type: in vivo, Echinochloa oryzoides; details: rated 3-4 weeks after treatment
Procedure, shortened: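 First, seeds or propagules go into the top 0.5 cm of silt loam; next, water is held 1.5 to 3 cm over the soil; then compound (50/50 acetone/water) is pipetted into it at about 0.0313 to 0.500 kg/ha; finally plants are rated visually 0-9 after three to four weeks.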

ORYSAT (Rice, Tebonnet) = test: Preemergence herbicidal evaluation; type: in vivo, Oryza sativa, (L.) Tebonnet; details: rated 4-5 weeks after treatment
Procedure, shortened: as §4

GALAP (Galium) [7] = test: Postemergence herbicidal evaluation; type: in vivo, Galium aparine; details: postemergence
Procedure, shortened: as §2

AMBEL (Ragweed, Common) = test: Postemergence herbicidal evaluation; type: in vivo, Ambrosia artemisifolia; details: postemergence
Procedure, shortened: as §2

[8] = test system: TRZAWR (Wheat, Winter, cv Riband); test: Postemergence herbicidal evaluation; type: in vivo, Triticum aestivum; details: postemergence
Procedure, shortened: as §2

In the case of `COC(=O)CN1C(=O)CSC1=Nc1cc(-n2c(=O)cc(C(F)(F)F)n(C)c2=O)c(F)cc1Cl` [Compound 17, Methyl 2-{{2-chloro-5-[3,6-dihydro-3-methyl-2,6-dioxo-4-(trifluoromethyl)-1(2H)-pyrimidinyl]-4-fluorophenyl}imino}-4-oxo-3-thiazolidineacetate], the “Herbicidal rating MOOVA” value (MOOVA (Monochoria); 0.0313 kg/ha) is reported as 9.0, the “Herbicidal rating MOOVA” value (MOOVA (Monochoria); 0.0625 kg/ha) is reported as 9.0 and the “Herbicidal rating MOOVA” value (MOOVA (Monochoria); 0.1250 kg/ha) is reported as 9.0. For the same compound, the “Herbicidal rating MOOVA” value (MOOVA (Monochoria); 0.2500 kg/ha) was 9.0, the CASOB herbicidal rating (CASOB (Sicklepod); rate 0.0156 kg/ha) was 0.0 and the CASOB herbicidal rating (CASOB (Sicklepod); rate 0.0313 kg/ha) was 1.0. For the same compound, the CASOB herbicidal rating (CASOB (Sicklepod); rate 0.0625 kg/ha) was 1.0, the CASOB herbicidal rating (CASOB (Sicklepod); rate 0.1250 kg/ha) was 5.5 and the “Herbicidal rating SAGPY” value ([1]; rate 0.0313 kg/ha) was 0.0. The “Herbicidal rating SAGPY” value ([1]; rate 0.0625 kg/ha) was 0.0, the “Herbicidal rating SAGPY” value ([1]; rate 0.1250 kg/ha) was 4.0 and the “Herbicidal rating SAGPY” value ([1]; rate 0.2500 kg/ha) was 4.0. It also gave a GLXMAW herbicidal rating ([2]; rate 0.0156 kg/ha) of 4.3, a GLXMAW herbicidal rating ([2]; rate 0.0313 kg/ha) of 5.5 and a GLXMAW herbicidal rating ([2]; rate 0.0625 kg/ha) of 5.8. For the same compound, the GLXMAW herbicidal rating ([2]; rate 0.1250 kg/ha) was 7.5, the “GALAP preemergence herbicidal rating” value (GALAP (Galium) [3]; rate 0.0156 kg/ha) was 0.0 and the “GALAP preemergence herbicidal rating” value (GALAP (Galium) [3]; rate 0.0313 kg/ha) was 0.0. For the same compound, the “GALAP preemergence herbicidal rating” value (GALAP (Galium) [3]; rate 0.0625 kg/ha) was 0.0, the “GALAP preemergence herbicidal rating” value (GALAP (Galium) [3]; rate 0.1250 kg/ha) was 1.0 and the “GALAP preemergence herbicidal rating” value (GALAP (Galium) [3]; rate 0.2500 kg/ha) was 9.0. The “GALAP preemergence herbicidal rating” value (GALAP (Galium) [3]; rate 0.5000 kg/ha) was 9.0, the “Herbicidal rating ECHORC” value ([4]; rate 0.0313 kg/ha) was 4.0 and the “Herbicidal rating ECHORC” value ([4]; rate 0.0625 kg/ha) was 9.0. The “Herbicidal rating ECHORC” value ([4]; rate 0.1250 kg/ha) was 9.0, the “Herbicidal rating ECHORC” value ([4]; rate 0.2500 kg/ha) was 9.0 and the “SETVI preemergence herbicidal rating” value (SETVI (Foxtail, Green); rate 0.0156 kg/ha) was 0.5. For the same compound, the “SETVI preemergence herbicidal rating” value (SETVI (Foxtail, Green); rate 0.0313 kg/ha) was 1.3, the “SETVI preemergence herbicidal rating” value (SETVI (Foxtail, Green); rate 0.0625 kg/ha) was 2.3 and the “SETVI preemergence herbicidal rating” value (SETVI (Foxtail, Green); rate 0.1250 kg/ha) was 6.7. For the same compound, the “SETVI preemergence herbicidal rating” value (SETVI (Foxtail, Green); rate 0.2500 kg/ha) was 9.0, the “SETVI preemergence herbicidal rating” value (SETVI (Foxtail, Green); rate 0.5000 kg/ha) was 9.0 and the “Herbicidal rating CYPSE” value (CYPSE (Flatsedge); 0.0313 kg/ha) was 9.0. For the same compound, the “Herbicidal rating CYPSE” value (CYPSE (Flatsedge); 0.0625 kg/ha) was 9.0, the “Herbicidal rating CYPSE” value (CYPSE (Flatsedge); 0.1250 kg/ha) was 9.0 and the “Herbicidal rating CYPSE” value (CYPSE (Flatsedge); 0.2500 kg/ha) was 9.0. For the same compound, the “Herbicidal rating SAGPY” value ([5]; 0.0313 kg/ha) was 0.0, the “Herbicidal rating SAGPY” value ([5]; 0.0625 kg/ha) was 0.0 and the “Herbicidal rating SAGPY” value ([5]; 0.1250 kg/ha) was 4.0. For the same compound, the “Herbicidal rating SAGPY” value ([5]; 0.2500 kg/ha) was 4.0, the “Herbicidal rating ECHORC” value ([6]; 0.0313 kg/ha) was 4.0 and the “Herbicidal rating ECHORC” value ([6]; 0.0625 kg/ha) was 9.0. For the same compound, the “Herbicidal rating ECHORC” value ([6]; 0.1250 kg/ha) was 9.0, the “Herbicidal rating ECHORC” value ([6]; 0.2500 kg/ha) was 9.0 and the “ORYSAT preemergence herbicidal rating” value (ORYSAT (Rice, Tebonnet); rate 0.0156 kg/ha) was 0.0. For the same compound, the “ORYSAT preemergence herbicidal rating” value (ORYSAT (Rice, Tebonnet); rate 0.0313 kg/ha) was 0.0, the “ORYSAT preemergence herbicidal rating” value (ORYSAT (Rice, Tebonnet); rate 0.0625 kg/ha) was 1.0 and the “ORYSAT preemergence herbicidal rating” value (ORYSAT (Rice, Tebonnet); rate 0.1250 kg/ha) was 1.0. The “ORYSAT preemergence herbicidal rating” value (ORYSAT (Rice, Tebonnet); rate 0.2500 kg/ha) was 3.3, the “ORYSAT preemergence herbicidal rating” value (ORYSAT (Rice, Tebonnet); rate 0.5000 kg/ha) was 6.5 and the GALAP herbicidal rating (GALAP (Galium) [7]; rate 0.0156 kg/ha) was 1.5. For the same compound, the GALAP herbicidal rating (GALAP (Galium) [7]; rate 0.0313 kg/ha) was 3.5, the GALAP herbicidal rating (GALAP (Galium) [7]; rate 0.0625 kg/ha) was 5.5 and the GALAP herbicidal rating (GALAP (Galium) [7]; rate 0.1250 kg/ha) was 6.0. The AMBEL herbicidal rating (AMBEL (Ragweed, Common); rate 0.0156 kg/ha) was 3.0, the AMBEL herbicidal rating (AMBEL (Ragweed, Common); rate 0.0313 kg/ha) was 6.0 and the AMBEL herbicidal rating (AMBEL (Ragweed, Common); rate 0.0625 kg/ha) was 6.0. For the same compound, the AMBEL herbicidal rating (AMBEL (Ragweed, Common); rate 0.1250 kg/ha) was 9.0, the TRZAWR herbicidal rating ([8]; rate 0.0156 kg/ha) was 3.3 and the TRZAWR herbicidal rating ([8]; rate 0.0313 kg/ha) was 4.5. For the same compound, the TRZAWR herbicidal rating ([8]; rate 0.0625 kg/ha) was 5.5 and the TRZAWR herbicidal rating ([8]; rate 0.1250 kg/ha) was 7.3.
